Laboratory results from patent US8802240B2, “Uses of formulations of thyroid hormone analogs and nanoparticulate forms thereof to increase chemosensitivity and radiosensitivity in tumor or cancer cells” (Nanopharmaceuticals LLC, priority 2011, dated 2014).

How the values were obtained:
[1] = tested on: human medullary thyroid carcinoma cells; assay: Confocal distribution of Cy3-labeled Tetrac vs Tetrac NP; format: cell-based; details: around 2 h
Excerpt: Penicillin streptomycin (1%) was present in both culture media.

[2] = tested on: SKN-SH/R cells; assay: Senescence and apoptosis in drug resistant cells; format: cell-based; details: 24 h
Procedure: In FIG. 16A, SKN-SH/R cells were subjected to treatment doxorubicin (Dox) alone, Tetrac alone, or the combination of both for 24 h. Expression of p21/WAF1, cleaved caspase-3 (Cl-Casp-3) and beta action were measured by Western blot using specific antibodies. In FIG. 16B, the cells were seeded in 24 well plates and treated as mentioned above and expression of the senescence associated beta galactosidase (SA-β-Gal.) was assayed as described in the methods section. In FIG. 16C, the cells were seeded on cover slips and treated with the drugs as above for 24 h, after which they were fixed and stained with Hoechst and the percentage of positive cells graphed. The data represent average of 3 determinations±SE.

[3] = tested on: doxorubicin-resistant MCF7/R cells; assay: Doxorubicin-resistant tumors in nude mice; format: in vivo
Procedure: Mice were injected with doxorubicin-resistant MCF7/R cells (10^6) and after 10 days, they were assigned into groups of seven mice each and challenged with doxorubicin (2 mg/kg) or Tetrac (30 mg/kg) either alone or in combination. Tumor volume was measured every 3 days for up to three weeks.

[4] = Tetrac uptake
[5] = tested on: GL261 tumor cells; assay: GL261 44° C. hyperthermia; format: cell-based, murine; details: 44° C. plus Tetrac is the equivalent of 45° C. without Tetrac
Procedure: Additionally, Tetrac sensitizes GL261 cells in hyperthermic conditions. Graded heat treatment of GL261 tumor cells with 44° C. was given, without and with Tetrac. Tetrac increased cell killing as compared to control cells alone, by the equivalent of about 1° C. (i.e., 44° C. plus Tetrac is the equivalent of 45° C. without Tetrac). (See FIG. 63).

[6] = tested on: P-gp, GST and SOD in MCF7/R cells; assay: Western blot of classical drug resistance genes; format: cell-based; details: 24 h
Procedure: (§1) FIG. 15A is a Western blofshowing the expression of P-gp, GST and SOD in wild type (W) drug sensitive and resistant (R) MCF7 cells. […] The cells were treated for 24 h with each drug alone or the combination of both, after that, expression of drug resistance molecules was determined by Western blot using specific antibodies. […] The cells were incubated for 24 hours with doxorubicin in the absence or the presence of Tetrac, after that they were washed and then solubilized. Radioactivity associated with the cell lysates was counted and compared between the two cell lines either treated or not with Tetrac. The data represent an average of 3 determinations±SE.

[7] = tested on: GL261 cells; assay: GL261 potentially lethal damage repair (PLDR); format: cell-based, murine
Procedure: PLDR was also measured using the 10% survival level in both control and Tetrac treated-cells, and was also done for both exponentially growing and plateau phase cells. The total 10% survival dose was given, and then cells were placed back into the 37° C. incubator for various periods of time. At 0, 0.5, 1.0, 1.5, 2.0, 3.0, 4.0, 6.0, 8.0, and 10.0 hours, flasks were removed, and processed for survival assessment.
To investigate the effects of Tetrac on SLDR and PLDR, cells were chosen that had been given a one-hour treatment with Tetrac at two different times, i.e., at 70 and 270 hours post-seeding).

[8] = tested on: MCF7 and MCF7/R cells; assay: Intracellular accumulation of radiolabeled doxorubicin; format: cell-based; details: 24 hours, presence vs absence of Tetrac
Procedure: as §1

[9] = molecular target: TTR (Transthyretin) (Homo sapiens, UniProt P02766); assay: TTR displacement assay; format: binding
Excerpt: Determination of the optimal or preferred density of the thyroid hormone or thyroid hormone analog bound to the nanoparticles is within the routine skill level in the art. For example, those skilled in the art will recognize that TTR (Transthyretin) can be used as the basis for a displacement assay in order to quantify the amount of Tetrac bound to nanoparticles. Specifically, such assays involve in vitro displacement of radiolabeled T4 from TTR by Tetrac or Tetrac nanoparticles (Tetrac NP). […] Amounts of nanoparticulate Tetrac in unknown suspensions (i.e., biologic fluids) are then calculated from the displacement of radiolabeled T4. […] The tubes are mixed and incubated for 16 hours at 4° C. The bound and free hormones are separated by adding dextran-coated charcoal (DCC) to each tube, which is then centrifuged at 12,000×g for 2 min. at 4° C. Bound [I^125] T4 in the supernatant is measured by scintillation counting.

[10] = tested on: DNA double-strand breaks in U87MG cells; assay: U87MG neutral comet assay of DNA double-strand breaks; format: cell-based, human
Procedure: For the comet assay studies of induction and repair of DSBs in U87MG cells, cells were treated as described above. However, for the single dose induction of DSBs doses ranged from 0-30 Gy, and for the study of the repair of DSBs in irradiated cells, a large single dose of 60 Gy requiring approximately 1 h of irradiation time was given. Appropriate temperature controls (on ice) were run to insure that no decrement in survival was produced by the 1 h exposure to 0° C.
U87MG cells on plastic slides were exposed to 2 nM Tetrac for 1 h at 37° C. These slides were then placed on crushed ice and irradiated with doses from 0 to 75 Gy. Slides were immersed in lysing solution at 50° C. for 2 hours. Slides were washed, and placed into a gel electrophoresis unit. Electrophoresis was carried out at 0.66 V/cm for 25 min. Cells were stained with ethidium bromide and image analysis was done using an epifluoresence microscope at a total magnification of 400×. We also used an excitation filter of 515-535 nm and a barrier filter at 590 nm. The mean tail moment (TM) which is expressed in arbitrary units was then calculated. TM was calculated using a CCD camera and software. Approximately 350 comets were analyzed per condition.

[11] = tested on: GL261 cells; assay: GL261 cell multiplicity after Tetrac exposure; format: cell-based, murine; details: one hour exposure to Tetrac
Procedure: Cell multiplicity (CM) was determined from Giemsa stained slides by counting the number of cells per microcolony under 20× magnification. At least 400 microcolonies were counted.
The length of time that Tetrac biologically affected GL261 cells was also determined. To do this, the multiplicity relationship defined above was utilized. Tetrac was added to cells one hour prior to the determination of the multiplicity. After the exposure of exponentially growing GL261 cells to Tetrac, the Tetrac containing medium was removed from GL261 cells, which contained an unknown residual and fresh medium (without Tetrac) was added. As a function of time (i.e., 0, 1, 2, 3, 4, 6, 8, and 10 hours, and 1-6 days), the cells, containing an unknown residual amount of remaining Tetrac, were then processed for determination of the multiplicity index (i.e. the number of cells per microcolony).

With `O=C(O)Cc1cc(I)c(Oc2cc(I)c(O)c(I)c2)c(I)c1` [Tetrac, tetraiodothyroacetic acid] the “distribution within h-MTC cells (in words)” value [1] was “distributed in the cytoplasm”, the “doxorubicin-induced proliferation arrest (p21/WAF1), SA-β-Gal and cell death (in words)” value [2] was “dramatically enhanced” and the “toxic effect (in words)” value ([3]; Tetrac 30 mg/kg) was “without any noticeable toxic effect”. For the same molecule, the “doxorubicin-sensitivity in vivo (in words)” value ([3]; Tetrac 30 mg/kg with doxorubicin 2 mg/kg) was “not restored”, the “growth of doxorubicin-resistant tumors (in words)” value ([3]; Tetrac 30 mg/kg, up to three weeks) was “effective in suppressing the growth of drug resistant tumors” and the “half-time for Tetrac uptake” value [4] was 10 to 15 min. For the same molecule, the “increase in cell killing, temperature equivalent” value [5] was “about 1 °C”, the “expression of P-glycoprotein, SOD and GST-π (in words)” value [6] was “none of these genes was significantly altered” and the “inhibition of PLDR by a factor of” value ([7]; exponential cells) was 1.9. The “decrease of PLDR expression by a factor of” value ([7]; plateau phase cells) was 3.4, the “intracellular accumulation of radiolabeled doxorubicin (in words)” value [8] was “increased significantly” and the “affinity of TTR relative to that for T4” value [9] was 100 times. For the same molecule, the “effect on the slope of the mean tail moment in graded single dose studies (in words)” value [10] was “did not affect the slope of the mean tail moment”, the “sensitization factor from mean tail moment at 0 Gy” value [10] was 2.2 and the “inhibition of repair of DNA double strand breaks / decrease of repair rate” value ([10]; [(1.00−slope Tetrac/slope control)×100]) was 72.5%. For the same molecule, the “slope of time-dependent DSB repair” value ([10]; after 30 Gy of x-rays, control −4.36) was −1.20, the “time for a 50% return of the cell multiplicity factor towards control” value [11] was “approximately 2.5 days” and the “time post Tetrac treatment at which the decrease in the CM factor was at 50%” value [11] was 60 h.
